Values of other authors as cited in paper PMC5944028, “Nonclinical and clinical pharmacological characterization of the potent and selective cathepsin K inhibitor MIV-711” (Journal of Translational Medicine, 2018).

Legend:
[1] = human, weekly dose of 50 mg, cited from earlier work
[2] = test system: urinary CTX-II; details: postmenopausal women with osteoporosis, 12 months; cited from earlier work

SMILES | mean plasma AUC0–24h [1] | IC50 ([1]; read-out: trough plasma IC50) | Reduction of urinary CTX-II [2]
CC(C)(F)C[C@H](N[C@@H](c1ccc(-c2ccc(S(C)(=O)=O)cc2)cc1)C(F)(F)F)C(=O)NC1(C#N)CC1 [odanacatib] | 6 to 7 µM·h | 50 to 60 nM | 
C[C@@H]1CS/C(=N\NC(=O)C(=O)[C@@H](NC(=O)C2CCCCCC2)C2CCOCC2)N1C [ONO-5334, reference compound] |  |  | 50%
